Publication PMC12040169 (PLOS Biology, 2025)

Experiment: in vitro
Details: human, hela cells

SMILES | viability at 28.5 h, 10 µM [%]
O=C(O)CP(=O)(O)c1ccc(Cl)cc1 [CBK019291] | 102

Same assay, conditions: human, hela cells, % viability

SMILES | viability at 28.5 h, 10 µM [%]
OCc1nc(-c2cccnc2)co1 [CBK018811] | 106
CN(C)c1nc(N(C)C)n(Cc2ccc(F)cc2)n1 [CBK018839] | 89.3
CCOC(=O)c1nnsc1Sc1ccc(C)cc1 [CBK018867] | 89.6
Cn1/c(=N\C(=O)c2cccs2)sc2cc(Br)ccc21 [CBK018873] | 102
CCCN(Cc1ccoc1)CC1CC1 [CBK018931] | 94.6
Clc1ccc(-c2nn[nH]n2)c(Cl)c1 [CBK018932] | 89.7
O=c1nc(-c2cc(Br)cs2)[nH]c2ccc(Cl)cc12 [CBK018959] | 90.5
CCOC(=O)c1cnc(SC)nc1N1CCOCC1 [CBK018971] | 90.7
C=CCNc1nc(N)c(/C(N)=N\C#N)s1 [CBK019028] | 99.3
CC1(C)NC(=O)N(CC(O)COc2cc3ccccc3cc2C(=O)N2CCCCC2)C1=O (stereo not shown) [CBK019029] | 120
Nc1nonc1NC(=O)c1ccccc1Cl [CBK019040] | 99.3
Cc1nc2n(n1)C1=CC(C)(C)CC(=O)C1=NN2 [CBK019050] | 89.2
C#CCN1C(=O)C2(OCCO2)c2cccc(C)c21 [CBK019069] | 95.1
Clc1ccccc1COc1cccc(/C=N/Nc2nc(N3CCCC3)nc(N3CCCC3)n2)c1 [CBK019076] | 89.8
CCCC1C(C(N)=O)=C(C)NC(C)=C1C(N)=O [CBK019102] | 105
Clc1nsnc1N1CCOCC1 [CBK019133] | 101
COc1ccc(C2(C(F)(F)F)NC(=O)N3CCN=C3S2)cc1 (stereo not shown) [CBK019170] | 106
CCCCOC(=O)CCn1c(=S)oc2ccccc21 [CBK019181] | 87.9
Cc1nccn1C(=O)NC1CCCCC1 [CBK019187] | 81.8
CC1=CC[C@H]2COC(CN3CCOC3C(C)C)[C@@H]1C2 (stereo partly shown) [CBK019189] | 122
O=S(=O)(c1ccc2c(c1)nc1n2CCC1)N1CCOCC1 [CBK019200] | 49.6
COC(=O)Nc1cc2sccc2nc1C(F)(F)F [CBK019229] | 80
N#Cc1sc2c(c1NC(=O)C(F)(F)F)CCCC2 [CBK019233] | 92.1
Nc1csc(C2CCOCC2)n1 [CBK019258] | 77.3
NC(=O)c1c(N)c(C(N)=S)n2c1CCC2 [CBK019270] | 98.1
CC1(Cc2ccn[nH]2)SCCCS1 [CBK019308C] | 109

SMILES | viability at 28.5 h, 10 µM [%]
CCSC(SCC)c1ccnn1-c1ccccc1 [CBK019332] | 87.1
COc1cc(C2CN=NC23Cc2ccccc2C3=O)cc(OC)c1OC (stereo not shown) [CBK019341] | 90.4
CC(C)N1CCC(=NNC(=O)C(O)c2ccccc2)CC1 (stereo not shown) [CBK019361] | 110
O=S(=O)(Cc1ccc(Br)cc1F)c1ccccn1 [CBK019368] | 90.4
COc1ccc(C2CC(Cn3cc(C(C)=O)c(=O)[nH]c3=O)ON2C)cc1 (stereo not shown) [CBK019386] | 95.7
COCCOc1nnc(C)c2ccccc12 [CBK019388] | 93.6
O=C(c1cccs1)N1CCCN(c2nccc(C(F)(F)F)n2)CC1 [CBK019390] | 89.4
OCC(O)/C=N/Nc1nc(N2CCCCC2)nc(N2CCCCC2)n1 (stereo not shown) [CBK019423] | 107
Cc1ncc(-c2ccc3ccccc3c2)s1 [CBK019439B] | 91.5
Cc1cc2cc3n(c2nn1)N=C(Cl)CC3 [CBK019458] | 91.4
O=C(Oc1cccc2cccnc12)c1ccc(Br)o1 [CBK019461] | 89.4
CCCCCC1CC(CC(=O)NC(=S)Nc2ccccc2Cl)C(=O)O1 (stereo not shown) [CBK019495] | 86.8
O=C(O)C1CSC(c2cc3ccccc3o2)N1 (stereo not shown) [CBK019502] | 93.7
O=C(Cc1nc2ccccc2[nH]1)N1CCOCC1 [CBK019505] | 93.7
CCOC(=O)c1[nH]c(=O)[nH]c1CSc1nc(C)cc(C)n1 [CBK019514] | 109
CCCCSc1nnc(-c2cc3c(C(F)(F)F)nn(C)c3s2)n1C [CBK019526] | 97.5
N#Cc1c2ccccc2cn1Cc1cccc(Cl)c1 [CBK019531] | 82.6
Oc1cc2nnnn2nc1-c1ccccc1 [CBK019550] | 101
CC1(C)CC(N(Cc2ccccc2)C(=O)Cc2ccco2)CCO1 (stereo not shown) [CBK019561] | 95.9
Brc1nc2c3c(nc(N4CCOCC4)c2s1)CCCC3 [CBK019604] | 83.4
NC(=O)CC1C=CS(=O)(=O)C1 (stereo not shown) [CBK019653] | 76.7
CCOc1cc(C(=S)N2CCCCC2)ccc1OC(=O)c1ccccc1Cl [CBK019660] | 98.9
CC1=Nc2c(ccc3nsnc23)NC(=O)C1 [CBK019676] | 97.1
C#CCOC(=O)Nc1cnc(N2CCOCC2)c(C(F)(F)F)c1 [CBK019679] | 90.5
CSc1nc(=O)c(CCC(=O)O)n[nH]1 [CBK019689] | 110
CC(C)/N=C1/N[C@@H]2CS(=O)(=O)C[C@H]2O1 [CBK019692G] | 87

SMILES | viability at 28.5 h, 10 µM [%]
CCc1nc(C)ccc1OCC(O)CNC(C)(C)C (stereo not shown) [CBK019698] | 94.3
Cc1ccc(-c2csc3ncn4nnnc4c23)cc1 [CBK019710] | 92.5
O=C(O)COc1cccc2nsnc12 [CBK019749] | 95.1
CCn1c2ccccc2c2cc(C(N)=O)c(N)nc21 [CBK019787] | 85.2
CSc1nn(C)c(=O)c2c3c(sc12)CCC3 [CBK019796] | 83.7
CC(=O)Nc1ccc(C2=NC3SC(c4ccc(NC(C)=O)cc4)=NC3S2)cc1 (stereo not shown) [CBK019799] | 103
CN(C)c1nc(N(C)C)n(C(=O)c2cccs2)n1 [CBK019805] | 99.3
Cc1nc(N)c(CNC2CCCCC2)c(O)n1 [CBK019809] | 112
O=C(NCC1CCCO1)NC(=O)c1nsc2ccccc12 (stereo not shown) [CBK019827] | 113
CSC1=Nc2cc(Cl)ccc2SCC1 [CBK019829] | 98.1
Cc1cc(C)nc(SCc2csc(N)n2)n1 [CBK019838] | 106
Brc1ccsc1-c1csc(-c2ccccc2)n1 [CBK019859] | 102
CC(C)CSc1nsc(N)n1 [CBK019938] | 97.1
CC1(C)CC(=O)c2sc(NC(=O)c3cccc(C(F)(F)F)c3)nc2C1 [CBK019941] | 94.2
O=C(CN1CCOCC1)N/N=C/c1ccncc1 [CBK019949] | 83.8
O=C(Nc1ccc(F)cc1F)Nc1cc(Cl)sc1Cl [CBK019967] | 102
CCCCCC1/C(=N\O)CCC1CC(=O)OC (stereo not shown) [CBK019978] | 93.9
NC1=NC(=O)C2(COC(c3cccnc3)OC2)S1 (stereo not shown) [CBK019981] | 91.3
CC(CCCC(C)(C)O)CC1OCCC(C)O1 (stereo not shown) [CBK019986] | 115
CC(C)S(=O)(=O)CC(=O)Nc1ccc(C(=O)O)cc1 [CBK020001] | 96.6
O=C1CSC2(CCCCC2)N1Nc1ccccc1 [CBK020047] | 101
Cc1c(N)c(=O)n2nc(C(F)(F)F)nc2n1C [CBK020172] | 90.4
CC(=O)NC1=NC(=O)CN1C [CBK020181] | 107
COC(=O)NC(NC(=O)OC)C(=O)c1ccccc1 [CBK020208] | 100
CC(=O)Nc1nonc1OCCOc1nonc1NC(C)=O [CBK020227] | 113
C/C(=N\NC(=O)C(C)Sc1ncccn1)C(C)(C)C (stereo not shown) [CBK020243] | 104

SMILES | viability at 28.5 h, 10 µM [%]
O=S(=O)(c1ccccc1)C1CCCCO1 (stereo not shown) [CBK020284] | 91.3
COc1cnn(-c2ccccc2)c(=O)c1N(C)C [CBK020317] | 94
CN1CCC(=NNC(=O)CCSc2ccc(Cl)cc2)CC1 [CBK020372] | 99.6
CCSc1nnc2c3c(sc2c1N)CC(C)(C)OC3 [CBK020374] | 95.4
O=C(O)CCC(=O)Nc1ccc(Sc2ccc([N+](=O)[O-])cc2)cc1 [CBK020438] | 92.5
COc1ccc(-c2nc3c(c(=S)[nH]2)CCCC3)cc1 [CBK020440] | 99.2
CC1(C)CN=C(N2CCN(C3=NCC(C)(C)S3)CC2)S1 [CBK020461] | 93.8
NS(=O)(=O)c1ccccc1Sc1ccccc1 [CBK020524] | 89
CCC1(C)Cc2sc3[nH]c(=O)c(SCC(N)=O)nc3c2CO1 (stereo not shown) [CBK020581] | 87.3
CCCCc1ccc(Nc2csc(N)n2)cc1 [CBK020594] | 82.5
CCOC1(c2ccccc2)N=C2C(Cl)=CC(C(F)(F)F)=CN2N=C1c1ccccc1 (stereo not shown) [CBK020634] | 91.4
Nc1nc2c3c(c(-c4ccccc4)nc2[nH]1)CCCC3 [CBK020648] | 78.2
Nc1c(C(=S)c2cccs2)oc2c1C(c1ccccc1)CC(=O)N2 (stereo not shown) [CBK020690] | 42.2
O=C(NC(=S)CC1C=NCS1)c1ccccc1 (stereo not shown) [CBK020794] | 107
COCCNC(=O)CSc1cc(Cl)nc(Cl)c1 [CBK020796] | 88.3
COc1ccc(C2NC(C(=O)O)CS2)cc1CN1C[C@@H]2C[C@H](C1)c1cccc(=O)n1C2 (stereo partly shown) [CBK020798] | 93.8
CC1=CC(C)(NC(N)=O)NC(=S)N1 (stereo not shown) [CBK020817] | 112
Cc1c(-c2csc(CC#N)n2)sc2ccccc12 [CBK020828] | 65.6
O=C(O)COc1ccccc1/C=N\N1CCN(Cc2ccccc2Cl)CC1 [CBK020891] | 96.7
CC(C)NC(=O)Nc1ccccc1-c1ncn(C)n1 [CBK020922] | 95.6
FC(F)(F)c1cc(/C=C/c2cccs2)n[nH]1 [CBK020924] | 92.1
CCN(CC)c1ccc(SC)n1C [CBK020929] | 104
N/C(=N/O)c1ccc(-n2cncn2)nc1 [CBK020936] | 104
CNCCc1n[nH]c(N)n1 [CBK020959] | 89.4
